Measured values: patent US20240316054A1, “NOVEL PLK1 PROTEIN DEGRADATION-INDUCING COMPOUND” (UPPTHERA, INC., priority 2021, published 2024)

Columns and labels:
PLK1 = biological target: T1, PLK1 (Homo sapiens, UniProt P53350); test: Luciferase (HiBit) assay of PLK1 degradation in HeLa LgBit (Plk1-HiBit KI) cells; type: cell-based; details: for PLK1 (luminescence value): released after thymidine block, compound 300 nM, luminescence at 9 hours, DMSO-only control
T1 construct: endogenous in cells; host or cells: HeLa cells stably expressing LgBit, with CRISPR/Cas9 knock-in of HiBit at the PLK1 C-terminus
From the text: (§1) Cell lines were constructed by transfecting LgBit vector into HeLa and HEK293T cell lines to be stably expressed. Then, gRNA and a donor were created to express the HiBit amino acid sequence behind the C-terminus of the PLK1 and BRD4 proteins contained in each cell, and then inserted into the cells together with a vector capable of expressing CRISPR/Cas9. Only cells that had undergone knock-in after completion of insertion were selected and passaged to be used.
(§2) Compounds according to Comparative Examples and Examples were completely dissolved in DMSO (Sigma-Aldrich Cat. No. D2438, Lot. No. RNBJ6524) and used in the following experiments. The compound of Comparative Example was the HBL-4 compound disclosed in the document (see Mu et al., Biochem Biophys Res Commun., 2020, 521(4): 833), which targets PLK1 and BRD4 like the compounds of the present invention, and the DMSO-only treatment group was used as the control group.
As to HeLa LgBit (Plk1-HiBit KI), cells were released after thymidine block, and then treated with compounds, and the process was as follows. Thymidine (Sigma-Aldrich Cat. No. T9250-5G) was completely dissolved in DW and used in the experiment. For thymidine block, cells were treated with 2 mM thymidine and incubated for 24 hours. For release and chemical treatment, the medium was suctioned and washed with 1×PBS. TyppLE™ was added and the cells were incubated for 5 min in a 37° C. CO2 incubator. Cells neutralized by adding complete medium were counted using the counter. For each well of a 96-well white plate (SPL), 3.3×10^4 cells were seeded in a total culture medium volume of 150 μl and incubated in a CO2 incubator.
(§3) Each cell line was incubated in a CO2 incubator for 18 hours, and then Endurazine was added to each well to reach 4% of the total volume. Here, the concentration of each compound after the addition was 300 nM for HeLa LgBit (Plk1-HiBit KI) and 100 nM for HEK293T LgBit (BRD4-HiBit KI). Then, the wavelength of the plate reader was set to 470 to 480 nm, and luminescence was tracked in real time.

BRD4 = biological target: T2, BRD4 (Homo sapiens, UniProt O60885); test: Luciferase (HiBit) assay of BRD4 degradation in HEK293T LgBit (BRD4-HiBit KI) cells; type: cell-based; details: for BRD4 (luminescence value): compound 100 nM, luminescence at 8 hours, DMSO-only control
T2 construct: endogenous in cells; host or cells: HEK293T cells stably expressing LgBit, with CRISPR/Cas9 knock-in of HiBit at the BRD4 C-terminus
From the text: as §1, §2
As to HEK293T LgBit (BRD4-HiBit KI), 4×10^4 cells were seeded in each well of a 96-well white plate (SPL) and cultured in a total culture medium volume of 150 μl.
as §3

T1 sequence (P53350 whole entry): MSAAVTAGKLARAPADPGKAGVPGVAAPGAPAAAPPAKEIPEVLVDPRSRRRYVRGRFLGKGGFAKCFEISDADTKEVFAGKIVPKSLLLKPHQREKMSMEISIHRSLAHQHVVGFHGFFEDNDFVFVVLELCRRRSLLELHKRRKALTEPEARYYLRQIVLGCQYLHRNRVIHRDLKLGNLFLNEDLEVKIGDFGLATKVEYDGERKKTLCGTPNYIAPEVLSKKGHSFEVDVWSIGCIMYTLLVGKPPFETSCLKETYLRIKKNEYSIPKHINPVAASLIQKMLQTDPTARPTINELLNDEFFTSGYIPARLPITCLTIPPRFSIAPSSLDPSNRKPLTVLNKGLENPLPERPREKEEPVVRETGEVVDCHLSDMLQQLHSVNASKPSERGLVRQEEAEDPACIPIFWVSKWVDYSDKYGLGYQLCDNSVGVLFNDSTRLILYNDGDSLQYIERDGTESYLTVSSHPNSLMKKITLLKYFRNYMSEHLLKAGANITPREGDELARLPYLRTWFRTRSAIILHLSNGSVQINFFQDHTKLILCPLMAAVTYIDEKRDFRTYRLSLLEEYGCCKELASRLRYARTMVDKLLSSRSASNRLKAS

Structure (SMILES) | PLK1 (luminescence value) (PLK1) | BRD4 (luminescence value) (BRD4) | PLK1 degradation level (PLK1; 300 nM, 9 hours) | BRD4 degradation level (BRD4; 100 nM, 8 hours)
CC[C@@H]1C(=O)N(C)c2cnc(Nc3ccc(C(=O)NCCOCCOCCNc4cccc5c4C(=O)N(C4CCC(=O)NC4=O)C5=O)cc3)nc2N1C1CCCC1 (stereo partly drawn) [Compound 4, 4-(((R)-8-cyclopentyl-7-ethyl-5-methyl-6-oxo-5,6,7,8-tetrahydropteridin-2-yl)amino)-N-(2-(2-(2-((2-(2,6-dioxopiperidin-3-yl)-1,3-dioxoisoindolin-4-yl)amino)ethoxy)ethoxy)ethyl)benzamide] | 0.208 | 0.692 |  | 
CC[C@@H]1C(=O)N(C)c2cnc(Nc3ccc(C(=O)N[C@H]4CC[C@H](N5CCN(CCOCCNc6cccc7c6C(=O)N(C6CCC(=O)NC6=O)C7=O)CC5)CC4)cc3OC)nc2N1C1CCCC1 (stereo partly drawn) [Compound 10, 4-(((R)-8-cyclopentyl-7-ethyl-5-methyl-6-oxo-5,6,7,8-tetrahydropteridin-2-yl)amino)-N-((1r,4R)-4-(4-(2-(2-((2-(2,6-dioxopiperidin-3-yl)-1,3-dioxoisoindolin-4-yl)amino)ethoxy)ethyl)piperazin-1-yl)cyclohexyl)-3-methoxybenzamide] | 0.343 | 0.629 |  | 
CC[C@@H]1C(=O)N(C)c2cnc(Nc3ccc(C(=O)NC4CCN(C(=O)CCN5CCN(c6cccc7c6C(=O)N(C6CCC(=O)NC6=O)C7=O)CC5)CC4)cc3OC)nc2N1C1CCCC1 (stereo partly drawn) [Compound 7, 4-(((R)-8-cyclopentyl-7-ethyl-5-methyl-6-oxo-5,6,7,8-tetrahydropteridin-2-yl)amino)-N-(1-(3-(4-(2-(2,6-dioxopiperidin-3-yl)-1,3-dioxoisoindolin-4-yl)piperazin-1-yl)propanoyl)piperidin-4-yl)-3-methoxybenzamide] | 0.120 | 0.488 |  | 
CC[C@@H]1C(=O)N(C)c2cnc(Nc3ccc(C(=O)NC4CCN(C(=O)CCCNc5cccc6c5C(=O)N(C5CCC(=O)NC5=O)C6=O)CC4)cc3OC)nc2N1C1CCCC1 (stereo partly drawn) [Compound 8, 4-(((R)-8-cyclopentyl-7-ethyl-5-methyl-6-oxo-5,6,7,8-tetrahydropteridin-2-yl)amino)-N-(1-(4-((2-(2,6-dioxopiperidin-3-yl)-1,3-dioxoisoindolin-4-yl)amino)butanoyl)piperidin-4-yl)-3-methoxybenzamide] | 0.204 | 0.394 |  | 
CC[C@@H]1C(=O)N(C)c2cnc(Nc3ccc(C(=O)N[C@H]4CCN(C(=O)CCC(=O)N5CCN(c6cccc7c6C(=O)N(C6CCC(=O)NC6=O)C7=O)CC5)C4)cc3OC)nc2N1C1CCCC1 (stereo partly drawn) [Compound 6, 4-(((R)-8-cyclopentyl-7-ethyl-5-methyl-6-oxo-5,6,7,8-tetrahydropteridin-2-yl)amino)-N-((3S)-1-(4-(4-(2-(2,6-dioxopiperidin-3-yl)-1,3-dioxoisoindolin-4-yl)piperazin-1-yl)-4-oxobutanoyl)pyrrolidin-3-yl)-3-methoxybenzamide] | 0.313 | 0.731 |  | 

The remaining lines, values ahead:

PLK1 (luminescence value) (PLK1) | BRD4 (luminescence value) (BRD4) | PLK1 degradation level (PLK1; 300 nM, 9 hours) | BRD4 degradation level (BRD4; 100 nM, 8 hours) | Structure (SMILES)
0.207 | 0.484 |  |  | COc1cc(C(=O)NCCOCCOCCNc2cccc3c2C(=O)N(C2CCC(=O)NC2=O)C3=O)ccc1Nc1ncc2c(n1)N(C1CCCCC1)[C@H](C)C(=O)N2C (stereo partly drawn) [Compound 9, 4-(((R)-8-cyclohexyl-5,7-dimethyl-6-oxo-5,6,7,8-tetrahydropteridin-2-yl)amino)-N-(2-(2-(2-((2-(2,6-dioxopiperidin-3-yl)-1,3-dioxoisoindolin-4-yl)amino)ethoxy)ethoxy)ethyl)-3-methoxybenzamide]
0.140 | 0.491 |  |  | CC[C@@H]1C(=O)N(C)c2cnc(Nc3ccc(C(=O)NCCOCCOCCOCCOCCNc4cccc5c4C(=O)N(C4CCC(=O)NC4=O)C5=O)cc3OC)nc2N1C1CCCC1 (stereo partly drawn) [Compound 5, 4-(((R)-8-cyclopentyl-7-ethyl-5-methyl-6-oxo-5,6,7,8-tetrahydropteridin-2-yl)amino)-N-(14-((2-(2,6-dioxopiperidin-3-yl)-1,3-dioxoisoindolin-4-yl)amino)-3,6,9,12-tetraoxatetradecyl)-3-methoxybenzamide]
0.148 | 0.223 | ≥ 80% | ≥ 80% | CC[C@@H]1C(=O)N(C)c2cnc(Nc3ccc(C(=O)NCCOCCOCCNc4cccc5c4C(=O)N(C4CCC(=O)NC4=O)C5=O)cc3OC)nc2N1C1CCCC1 (stereo partly drawn) [Comparative Example 1, reference compound]
